Experimental data taken from the supplement of paper PMC13380429.

What was measured:
Settings in all cases: 72 h
Calu-3 [1] = experiment: relative viability EC50 (midpoint between 100% and the lowest measured viability); higher = less toxic
Caco-2 [2] = experiment: as above
Vero E6 [3] = experiment: as above
U2OS [4] = experiment: as above
HepG2 [5] = experiment: as above
Calu-3 [6] = experiment: cell viability relative to DMSO; higher = less toxic
Caco-2 [7] = experiment: as above
Vero E6 [8] = experiment: as above
U2OS [9] = experiment: as above
HepG2 [10] = experiment: as above
Calu-3 [11] = experiment: drug sensitivity score (DSS) for viability; higher = more toxic; extreme values may be limits of the assay
Caco-2 [12] = experiment: as above
Vero E6 [13] = experiment: as above
U2OS [14] = experiment: as above
HepG2 [15] = experiment: as above

Row | Compound | relative viability EC50 (Calu-3 [1]) [µM] | relative viability EC50 (Caco-2 [2]) [µM] | relative viability EC50 (Vero E6 [3]) [µM] | relative viability EC50 (U2OS [4]) [µM] | relative viability EC50 (HepG2 [5]) [µM] | cell viability (Calu-3 [6]; 1 nM) [%] | cell viability (Calu-3 [6]; 10 nM) [%] | cell viability (Calu-3 [6]; 100 nM) [%] | cell viability (Calu-3 [6]; 1000 nM) [%] | cell viability (Calu-3 [6]; 10000 nM) [%] | cell viability (Caco-2 [7]; 1 nM) [%] | cell viability (Caco-2 [7]; 10 nM) [%] | cell viability (Caco-2 [7]; 100 nM) [%] | cell viability (Caco-2 [7]; 1000 nM) [%] | cell viability (Caco-2 [7]; 10000 nM) [%] | cell viability (Vero E6 [8]; 1 nM) [%] | cell viability (Vero E6 [8]; 10 nM) [%] | cell viability (Vero E6 [8]; 100 nM) [%] | cell viability (Vero E6 [8]; 1000 nM) [%] | cell viability (Vero E6 [8]; 10000 nM) [%] | cell viability (U2OS [9]; 1 nM) [%] | cell viability (U2OS [9]; 10 nM) [%] | cell viability (U2OS [9]; 100 nM) [%] | cell viability (U2OS [9]; 1000 nM) [%] | cell viability (U2OS [9]; 10000 nM) [%] | cell viability (HepG2 [10]; 1 nM) [%] | cell viability (HepG2 [10]; 10 nM) [%] | cell viability (HepG2 [10]; 100 nM) [%] | cell viability (HepG2 [10]; 1000 nM) [%] | cell viability (HepG2 [10]; 10000 nM) [%] | drug sensitivity score (Calu-3 [11]) | drug sensitivity score (Caco-2 [12]) | drug sensitivity score (Vero E6 [13]) | drug sensitivity score (U2OS [14]) | drug sensitivity score (HepG2 [15])
1 | N[C@H](C(=O)O)c1ccc(O)cc1 [oxfenicine] | > 10 | > 10 | > 10 | > 10 | > 10 | 103 | 95.1 | 99.2 | 103 | 103 | 94.2 | 90.6 | 88.6 | 88.6 | 96.3 | 99.7 | 96.3 | 101 | 91.3 | 99.1 | 99.7 | 103 | 98.6 | 102 | 95.7 | 84.1 | 96.3 | 96.9 | 103 | 100 | 0 | 0 | 0 | 0 | 0
2 | Oc1cccc2cccnc12 [oxyquinoline] | > 10 | > 10 | > 10 | > 10 | > 10 | 101 | 114 | 95.5 | 104 | 98.8 | 109 | 96.4 | 84.7 | 93.2 | 88.7 | 96 | 100 | 94.2 | 103 | 90.8 | 101 | 97.5 | 103 | 97.5 | 100 | 119 | 79.7 | 110 | 102 | 80.9 | 0 | 3.1 | 0 | 0 | 0.3
3 | N=C(N)NC(=N)NCCc1ccccc1 [phenformin] | > 10 | > 10 | > 10 | > 10 | > 10 | 90.2 | 100 | 96.5 | 98.8 | 102 | 86.7 | 101 | 93.7 | 91.8 | 81.5 | 98.8 | 95.3 | 107 | 98.4 | 96.4 | 95.9 | 97.6 | 93.8 | 98.8 | 97.1 | 106 | 101 | 102 | 98 | 85.8 | 0 | 0.5 | 0 | 0 | 0.3
4 | CNC[C@H](O)c1cccc(O)c1 [phenylephrine] | > 10 | > 10 | > 10 | > 10 | > 10 | 103 | 92.5 | 95.7 | 98.9 | 97.5 | 99.2 | 91 | 96.4 | 92.4 | 99.7 | 96.6 | 99.7 | 95.6 | 93.5 | 102 | 98.9 | 96.1 | 98.9 | 102 | 101 | 98.7 | 101 | 99.1 | 93.5 | 111 | 0 | 0 | 0 | 0 | 0
5 | O=C(Nc1cccc2c(=O)cc(-c3nnn[nH]3)oc12)c1ccc(OCCCCc2ccccc2)cc1 [pranlukast] | > 10 | > 10 | > 10 | > 10 | > 10 | 102 | 111 | 93.1 | 96.8 | 88.9 | 94.1 | 91.3 | 94.6 | 99.1 | 86.7 | 99.6 | 94.4 | 93.8 | 97.1 | 96 | 96.7 | 97.2 | 94.3 | 98.6 | 95.2 | 95.7 | 95.6 | 104 | 101 | 99.9 | 0 | 0 | 0 | 0 | 0
6 | CC(=O)[C@H]1CC[C@H]2[C@@H]3CC=C4C[C@@H](OC(=O)CCC(=O)O)CC[C@]4(C)[C@H]3CC[C@]12C [pregnenolone-succinate] | > 10 | > 10 | > 10 | > 10 | > 10 | 89.8 | 95.1 | 93.7 | 94.1 | 113 | 90.5 | 97.4 | 110 | 94.2 | 87.7 | 94.1 | 96.8 | 88.7 | 97.3 | 107 | 101 | 94.7 | 100 | 97.9 | 99.9 | 93.3 | 93.8 | 94.4 | 95 | 97 | 0 | 0.3 | 0 | 0 | 0
7 | CNNCc1ccc(C(=O)NC(C)C)cc1 [procarbazine] | > 10 | > 10 | > 10 | > 10 | > 10 | 92.2 | 99.3 | 97.4 | 102 | 90.8 | 98.2 | 105 | 96.2 | 101 | 87.4 | 103 | 93.2 | 102 | 89 | 102 | 96 | 103 | 96.4 | 98.7 | 106 | 103 | 87.7 | 93.3 | 112 | 110 | 0 | 0 | 0 | 0 | 0
8 | Cc1cc(/C=C/c2ccc3cc(N(C)C)ccc3[n+]2C)c(C)n1-c1ccccc1 [pyrvinium-pamoate] | 1.16 | 0.834 | 1.56 | 1.15 | 0.745 | 105 | 101 | 99.3 | 63 | 9.3 | 107 | 93 | 102 | 46.9 | 13.3 | 106 | 97.4 | 100 | 78 | 10.6 | 107 | 106 | 103 | 60 | 3.8 | 104 | 110 | 98 | 42 | 9.6 | 9.9 | 11.1 | 8.4 | 10.6 | 11.9
9 | C#CCN[C@@H]1CCc2ccccc21 [rasagiline] | > 10 | > 10 | > 10 | > 10 | > 10 | 87 | 96.3 | 100 | 97.3 | 99.6 | 97 | 98 | 91.5 | 99 | 94.2 | 106 | 104 | 102 | 104 | 97.1 | 99.8 | 105 | 97.5 | 106 | 97.2 | 103 | 117 | 110 | 104 | 99.6 | 0 | 0 | 0 | 0 | 0
10 | CNC(=O)c1cnn(-c2nc(N)c3ncn([C@@H]4O[C@H](CO)[C@@H](O)[C@H]4O)c3n2)c1 [regadenoson] | > 10 | > 10 | > 10 | > 10 | > 10 | 91.7 | 104 | 106 | 102 | 103 | 101 | 97.4 | 91.1 | 94.3 | 108 | 101 | 93.7 | 86.2 | 103 | 111 | 95.9 | 92.1 | 102 | 99 | 104 | 102 | 105 | 102 | 90.7 | 117 | 0 | 0 | 0 | 0 | 0
11 | COc1ccc(S(=O)(=O)N2c3ccc(Cl)cc3[C@](O)(c3ccccc3Cl)[C@@H]2C(=O)N2CCC[C@H]2C(N)=O)cc1OC [relcovaptan] | > 10 | > 10 | > 10 | > 10 | > 10 | 91.8 | 100 | 93.3 | 108 | 86.7 | 102 | 102 | 91.6 | 102 | 87.5 | 103 | 99.8 | 92.4 | 97.2 | 97.5 | 103 | 105 | 102 | 105 | 99.2 | 108 | 99.4 | 108 | 98.8 | 94.3 | 0 | 0 | 0 | 0 | 0
12 | O=C(O)c1cc(O)c2c(c1)C(=O)c1cccc(O)c1C2=O [rhein] | > 10 | > 10 | > 10 | > 10 | > 10 | 90 | 96.6 | 106 | 98.5 | 111 | 100 | 102 | 97.6 | 95.7 | 98.1 | 98.7 | 92.7 | 95.5 | 99.1 | 99.2 | 103 | 98.4 | 99 | 98.2 | 102 | 110 | 95.5 | 106 | 93.3 | 88.6 | 0 | 0 | 0 | 0 | 0.2
13 | CCC(=O)[C@@]1(C)[C@H](C)C[C@H]2[C@@H]3CCC4=CC(=O)C=C[C@]4(C)[C@H]3[C@@H](O)C[C@@]21C [rimexolone] | > 10 | > 10 | > 10 | > 10 | > 10 | 98.4 | 99 | 89.4 | 102 | 96.4 | 85.5 | 90.5 | 101 | 88.8 | 107 | 93.8 | 95.2 | 90 | 94.7 | 100 | 99.8 | 98.9 | 100 | 95.5 | 97 | 86.3 | 102 | 95.4 | 112 | 92.8 | 0 | 0 | 0 | 0 | 0
14 | NC(=O)c1ccc(F)c2c1C[C@@H](N(C1CCC1)C1CCC1)CO2 [robalzotan] | > 10 | > 10 | > 10 | > 10 | > 10 | 98.8 | 110 | 94.5 | 91.2 | 97.7 | 92.7 | 98.3 | 97.5 | 105 | 99.5 | 102 | 99.8 | 107 | 94.4 | 103 | 102 | 107 | 97.7 | 105 | 99.1 | 105 | 101 | 99.5 | 96.9 | 100 | 0 | 0 | 0 | 0 | 0
15 | CC1CCC(NC(=O)N(CCCl)N=O)CC1 (stereo not given) [semustine] | > 10 | > 10 | > 10 | > 10 | > 10 | 98.5 | 110 | 87 | 97.2 | 99.4 | 99.1 | 103 | 104 | 91.1 | 91.7 | 106 | 99.6 | 105 | 104 | 99.8 | 98.8 | 96.6 | 99.6 | 99.5 | 99.9 | 96.3 | 108 | 92.3 | 107 | 91.8 | 0 | 0 | 0 | 0 | 0
